Test systems include MOLT-4; HCT-116; U-251; HCT-15; SK-MEL-5; NCI/ADR-RES; ACHN; COLO 205; SK-OV-3; NCI-H522; SNB-75; UO-31; KM12; IGROV-1; SR; Malme-3M; MDA-MB-231; MDA-MB-435; UACC-257; SF-539.
Holding throughout (assay): NCI anticancer screen, dose series, 48 h

Here are results for four compounds from ChEMBL document CHEMBL1201862, “PubChem BioAssay data set” (2004).

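1) Cells in 96-well plates. 2) Compound, 48 h, 5 concentrations. 3) Linear interpolation between surrounding doses. 4) Unreached endpoint = highest concentration. The concentration for 50% growth inhibition is given as GI50.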 Calls of active or inactive are those of the source. No stated cut-off is given here; in the data, active = GI50 up to about 1.1 µM and inactive = higher.

Take `COc1ccc2c(c1)[n+]([O-])c1cc(C#N)ccc1[n+]2[O-]`: the GI50 in the assay with MOLT-4 was 0.316 µM (active); with HCT-116, 11.1 µM (inactive); with U-251, 3.72 µM (inactive); with HCT-15, 0.723 µM; in the assay with SK-MEL-5, 0.893 µM (active); in the assay with NCI/ADR-RES it was 15.5 µM (inactive). For the same compound, the GI50 in the assay with ACHN is 1.69 µM (inactive); with COLO 205, 0.586 µM (active); with SK-OV-3, 18.5 µM (inactive); in the assay on NCI-H522, 5.62 µM (inactive); in the assay with SNB-75, 4.41 µM (inactive); in the assay with UO-31, 5.31 µM (inactive). Further, the GI50 in the assay with KM12 is 2.38 µM (inactive); in the assay with IGROV-1 it was 4.88 µM (inactive); with SR it was 4.08 µM (inactive); in the assay on Malme-3M it was 2.58 µM (inactive); with MDA-MB-231 it was 12.5 µM (inactive); with MDA-MB-435 it was 2.25 µM (inactive). The GI50 in the assay with UACC-257 was 3.74 µM (inactive); in the assay with SF-539 it was 3.41 µM (inactive).

As for `Cc1ccc2cccc(OC(=O)c3cc4c(cc3Cl)Sc3nccn3S4(=O)=O)c2n1`, the GI50 was 4.55 µM (inactive) with MOLT-4; 6.53 µM (inactive) in the assay with HCT-116; 4.34 µM (inactive) in the assay with U-251; 5.26 µM in the assay on HCT-15; 12.3 µM (inactive) with SK-MEL-5; 14 µM (inactive) with NCI/ADR-RES. Also, the GI50 in the assay with ACHN was 10.5 µM (inactive); in the assay with COLO 205 it was 15.8 µM (inactive); with SK-OV-3, 22.8 µM (inactive); with NCI-H522, 9.82 µM (inactive); with SNB-75, 9.66 µM (inactive); in the assay on UO-31 it was 2.05 µM (inactive). Moreover, the GI50 is 5.75 µM (inactive) in the assay with KM12; 6.37 µM (inactive) in the assay with IGROV-1; 3.75 µM (inactive) in the assay with SR; 17.5 µM (inactive) in the assay on Malme-3M; 14.1 µM (inactive) in the assay on MDA-MB-231; 9.59 µM (inactive) in the assay on MDA-MB-435. Besides, the GI50 in the assay with UACC-257 was 12.2 µM (inactive); with SF-539, 5.61 µM (inactive).

Regarding `C#CC1(OC(C)=O)CCC2C3CC=C4C=C(OC(C)=O)CCC4(C)C3CCC21C` (stereo not given), the GI50 in the assay with MOLT-4 is 13.2 µM (inactive); in the assay on HCT-116 it was 16.2 µM (inactive); in the assay on U-251 it was 19.5 µM (inactive); in the assay on HCT-15, 23.3 µM; in the assay with SK-MEL-5 it was 18.3 µM (inactive); in the assay with NCI/ADR-RES it was 26.9 µM (inactive). In addition, the GI50 with ACHN was 26.7 µM (inactive); in the assay on COLO 205, 16.2 µM (inactive); in the assay on SK-OV-3, 36.2 µM (inactive); in the assay on NCI-H522 it was 17.4 µM (inactive); with SNB-75, 28.1 µM (inactive); in the assay with UO-31, 23.1 µM (inactive). Besides, the GI50 with KM12 is 20.4 µM (inactive); in the assay with IGROV-1, 19.3 µM (inactive); in the assay on SR, 16.3 µM (inactive); in the assay with Malme-3M, 18 µM (inactive); with MDA-MB-231 it was 24.2 µM (inactive); in the assay on MDA-MB-435 it was 20.1 µM (inactive). Further, the GI50 was 17.4 µM (inactive) in the assay on UACC-257 and 21.3 µM (inactive) in the assay with SF-539.

For `C(=C(c1ccc(OC2CCCCO2)cc1)c1ccc(OC2CCCCO2)cc1)c1ccccc1` (stereo not given), the GI50 in the assay with MOLT-4 was 0.392 µM (active); in the assay on HCT-116 it was 0.412 µM (active); with U-251, 0.792 µM (active); in the assay with HCT-15 it was 0.8 µM; in the assay with SK-MEL-5, 0.444 µM (active); in the assay on NCI/ADR-RES, 0.883 µM (active). Besides, the GI50 is 1.06 µM (active) in the assay on ACHN; 0.583 µM (active) in the assay on COLO 205; 1.29 µM (inactive) in the assay on SK-OV-3; 1.09 µM (active) with NCI-H522; 0.605 µM (active) in the assay with SNB-75; 0.895 µM (active) in the assay with UO-31. Also, the GI50 in the assay with KM12 was 0.156 µM (active); in the assay with IGROV-1, 0.524 µM (active); with SR, 0.371 µM (active); in the assay on Malme-3M it was 0.863 µM (active); in the assay on MDA-MB-231 it was 0.361 µM (active); in the assay on MDA-MB-435, 0.557 µM (active). In addition, the GI50 in the assay with UACC-257 is 0.378 µM (active); with SF-539, 1.53 µM (inactive).
